A short description of data set [1]: Study 2: pharmacokinetics of HPβCD-diclofenac and excipient HPβCD in subjects with renal or hepatic impairment and healthy subjects (crossover vs itraconazole). Format: in vivo, human. The note with it: for AUC(0 − t) / AUC∞ / CL / Vz / t½ / λz: mean ± SD; for Tmax: median; for maximum HPβCD plasma concentration: after administration of Dyloject. On the procedure: Subjects with mild chronic hepatic impairment, as defined by Child-Pugh Classification A, Score of 5 to 6 and a bilirubin of ≦2.5 mg/dl, were recruited. Subjects with renal or hepatic impairment were included if they were between 18-75 years of age, and healthy subjects between 18 and 65 years of age.
Inclusion criteria for healthy subjects were similar to those for Study 1. Healthy subjects were required to have normal renal function, defined as CrCl>80 mL/min, and normal hepatic function. […]
Similar to Study 1, there were allowances for a greater breadth of co-morbid conditions in the renal and hepatic groups. […] Diabetic patients must have been on a stable therapeutic regimen for four weeks.
Exclusion criteria included pregnancy, uncontrolled or poorly controlled diabetes, use of dialysis, fluctuating or rapidly deteriorating hepatic function, hepatic or other cancers, organ transplantation or immunosuppression, acute infections, or asthma. Subjects were excluded for any serious cardiovascular events, such as myocardial infarction, coronary artery bypass surgery or percutaneous coronary intervention, unstable angina, stroke or congestive heart failure. Restrictions were also placed on certain disease states, such as current intestinal disorders or infections, peptic ulcers, GI bleeding or cerebral hemorrhage. Subjects who were positive for hepatitis B or hepatitis C were excluded from the healthy and renal groups, but were included in the subjects with mild chronic hepatic impairment. […] Hypersensitivity to NSAIDs or diclofenac also prompted exclusion.
Subjects with renal or hepatic impairment reported to the study site on study day 0 and remained at the site for two nights and two days. […] Subjects were discharged on study day 2 after being assessed by the investigator, and returned 7±3 days after dosing for final safety assessments. If there were no abnormal findings at discharge, the follow-up visit was completed via telephone.
Healthy subjects reported to the study site on study day 0 and remained at the site for three nights and three days. […] Blood samples were obtained as described above for renal and hepatic subjects. […] For itraconazole, one blood sample was to be drawn at each time point to assay for HPβCD concentrations. Subjects were discharged on study day 3 after being assessed by the investigator, and returned 7±3 days after receiving the last dose of study drug for safety assessments.
The LOQ for the HPβCD assay was 100 ng/ml.
Pharmacokinetic parameters were calculated using non-compartmental analysis. Only those plasma concentrations equal to or greater than the lower limit of quantitation were used in the analysis. Actual sampling times were used in all pharmacokinetic analyses.
The maximum serum concentration (Cmax) and time to Cmax (Tmax) were taken directly from the data. The elimination rate constant, λz, was calculated as the negative of the slope of the terminal log-linear segment of the serum concentration-time curve. The range of data used for each subject and treatment was determined by visual inspection of a semi-logarithmic plot of concentration vs. time. Elimination half-life (t½) was calculated according to the following equation;
where Ctf is the final concentration≧: LOQ. Total plasma clearance (CL) was calculated as Dose/AUC, and volume of distribution (Vz) was calculated as Dose/λz AUC.
Comparisons among the three subject types were done using […]. The same model was used to test for the effect of hepatic impairment on the pharmacokinetics of diclofenac and HPβCD but without additional comparisons, as there were only two groups.

The conditions of data set [2]: cited from earlier work; for K1:1, stability constant of 1:1 inclusion complex with HPβCD: literature reference; for Prot. bind., drug fraction bound to protein (fP): plasma; for Cmax: read-out: Cmax, maximum drug concentration in plasma, based on the drug's pharmacokinetics and administration of a normal drug dose.
The mark [3] stands for this setting: Study 2, Healthy matches (to hepatic group), 37.5 mg HPβCD-diclofenac IV, plasma HPβCD.
The mark [4] stands for this setting: Study 2, Healthy matches (to renal groups), 37.5 mg HPβCD-diclofenac IV, plasma HPβCD.
Where [5] appears, read: Study 2, Healthy, plasma HPβCD after 37.5 mg HPβCD-diclofenac IV.
[6] abbreviates: Study 2, Healthy, plasma HPβCD after 200 mg itraconazole IV.
Setting [7] is: Study 2, Mild Hepatic, 37.5 mg HPβCD-diclofenac IV, plasma HPβCD.
The mark [8] stands for this setting: Study 2, Mild Renal, 37.5 mg HPβCD-diclofenac IV, plasma HPβCD.
[9] abbreviates: Study 2, Moderate renal, 37.5 mg HPβCD-diclofenac IV, plasma HPβCD.
Setting [10] is: moderate renal insufficiency compared to healthy subjects.
Setting [11] is: subjects with moderate renal insufficiency, 37.5 mg dose of HPβCD-diclofenac.

The text below walks through data of patent US20140221490A1, “METHODS OF TREATING PAIN” (Hospira, Inc., priority 2011, published 2014).

Take `CC(O)COC[C@H]1O[C@@H]2O[C@H]3[C@H](O)[C@@H](O)[C@@H](O[C@H]4[C@H](O)[C@@H](O)[C@@H](O[C@H]5[C@H](O)[C@@H](O)[C@@H](O[C@H]6[C@H](O)[C@@H](O)[C@@H](O[C@H]7[C@H](O)[C@@H](O)[C@@H](O[C@H]8[C@H](O)[C@@H](O)[C@@H](O[C@H]1[C@H](O)[C@H]2O)O[C@@H]8COCC(C)O)O[C@@H]7COCC(C)O)O[C@@H]6COCC(C)O)O[C@@H]5COCC(C)O)O[C@@H]4COCC(C)O)O[C@@H]3COCC(C)O` (stereo partly drawn) [HPβCD, hydroxypropyl-beta-cyclodextrin]: in data set [1] (37.5 mg IV), the “PK in subjects with mild hepatic impairment versus matched healthy controls” value is on record as “no differences”. Also, the “exposure to HPβCD, geometric least squares mean ratio of AUC∞, relative to 8000 mg as Sporanox” value in data set [1] (333.3 mg HPβCD as HPβCD-diclofenac, healthy subjects) was found to be 4.58%. Further, in data set [1] (setting [3]), the “AUC(0 − t)” value is 52,982 ± 11,267 h × ng/mL, the “AUC∞” value was 53,651 ± 11,321 h × ng/mL, the CL worked out at 107 ± 21.2 mL/min and the Vz was determined as 20.6 ± 2.45 L. In data set [1] (setting [3]), the t½ – broadly, the time needed for the level to fall by half in the phase considered – turned out to be 2.28 ± 0.42 h; the λz worked out at 0.3127 ± 0.052 h⁻¹; the Tmax (usually the time at which the peak concentration occurs) is on record as 0.083 h. Further, in data set [1] (setting [4]), the “AUC(0 − t)” value is 66,449 ± 12,642 h × ng/mL, the “AUC∞” value is 67,316 ± 12,615 h × ng/mL, the CL is listed as 85.2 ± 16.5 mL/min and the Vz was 23.3 ± 9.84 L. For the same molecule, in data set [1] (setting [4]), the t½ is 3.29 ± 1.66 h, the λz is 0.2510 ± 0.095 h⁻¹ and the Tmax is on record as 0.083 h. Besides, in data set [1] (setting [5]), the “AUC(0 − t)” value was 58,994 ± 14,123 h × ng/mL, the “AUC∞” value is on record as 59,709 ± 14,217 h × ng/mL, the CL was 98.0 ± 22.7 mL/min and the Vz came to 21.8 ± 7.36 L. Besides, in data set [1] (setting [5]), the t½ is on record as 2.74 ± 1.35 h, the λz was found to be 0.2909 ± 0.0860 h⁻¹ and the Tmax is 0.083 h. Besides, in data set [1] (setting [6]), the CL was determined as 106 ± 19.0 mL/min, the Vz is on record as 23.5 ± 5.65 L, the t½ is 2.54 ± 0.25 h and the λz turned out to be 0.2752 ± 0.0244 h⁻¹. In addition, the Tmax in data set [1] (setting [6]) is recorded as 1.083 h. In data set [1] (setting [7]), the “AUC(0 − t)” value is given as 55,946 ± 17,233 h × ng/mL, the “AUC∞” value is 56,802 ± 17,412 h × ng/mL, the CL amounted to 107 ± 33.8 mL/min and the Vz came to 20.0 ± 4.19 L. Also, in data set [1] (setting [7]), the t½ was determined as 2.28 ± 0.60 h, the λz was 0.3226 ± 0.084 h⁻¹ and the Tmax was 0.083 h. In addition, in data set [1] (setting [8]), the “AUC(0 − t)” value is given as 127,141 ± 90,489 h × ng/mL, the “AUC∞” value was 128,349 ± 91,132 h × ng/mL, the CL came out at 59.0 ± 31.3 mL/min and the Vz is recorded as 13.6 ± 5.38 L. In addition, in data set [1] (setting [8]), the t½ turned out to be 2.87 ± 0.69 h, the λz was 0.2549 ± 0.068 h⁻¹ and the time of peak concentration (Tmax) is given as 0.083 h. Further, in data set [1] (setting [9]), the “AUC(0 − t)” value was 169,042 ± 52,722 h × ng/mL, the “AUC∞” value is listed as 165,728 ± 60,386 h × ng/mL, the CL was determined as 36.2 ± 10.0 mL/min and the Vz is 17.7 ± 1.88 L. In data set [1] (setting [9]), the t½ amounted to 6.04 ± 1.94 h, the λz is 0.1226 ± 0.033 h⁻¹ and the Tmax was 0.083 h. In addition, in data set [1] (after a single dose), the “exposure to HPβCD relative to that of itraconazole” value is given as 1/20. Also, the “maximum HPβCD plasma concentration” value in data set [1] (normal healthy subjects) came out at 70 µg/mL. In addition, in data set [1] (subjects with moderate renal impairment), the “maximum HPβCD plasma concentration” value came to 106 µg/mL. In addition, the “exposure to HPβCD relative to that of itraconazole” value in data set [1] (after steady state) is “⅛”. Moreover, in data set [1] (setting [10]), the “decrease in CL of HPβCD” value was 2.4 fold and the “increase in t½ of HPβCD” value is on record as 1.8 fold. Also, in data set [1] (setting [11]), the “exposure to HPβCD lower than in healthy subjects administered itraconazole, based on AUC(0-T)” value came to 7.9 fold and the “exposure to HPβCD lower than in healthy subjects administered itraconazole, based on average concentration at steady state (Cav)” value amounted to 3.9 fold.
As for `CC(=O)Oc1ccccc1C(=O)O` [Acetylsalicylic acid], in data set [2], the “Vd, volume of distribution” value was 0.15 L/kg; the “K1:1, stability constant of 1:1 inclusion complex with HPβCD” value (“K1:1, stability constant” below) is 100^l M^−1; the “Prot. bind., drug fraction bound to protein (fP)” value (“Prot. bind., drug fraction bound” below) is 80%; the Cmax is 530 µM.
Consider `CC(=O)Nc1nnc(S(N)(=O)=O)s1` [Acetazolamide], for which, in data set [2], the “Vd, volume of distribution” value was 0.2 L/kg; the “Prot. bind., drug fraction bound” value is on record as 95%; the Cmax was 160 µM.
For `CN[C@H]1CC[C@@H](c2ccc(Cl)c(Cl)c2)c2ccccc21` [Sertaline], in data set [2], the “Prot. bind., drug fraction bound” value is 98%.
As to `CCc1cccc2c3c([nH]c12)C(CC)(CC(=O)O)OCC3` (stereo not shown) [Etodolac], in data set [2], the “Vd, volume of distribution” value was 0.4 L/kg; the “Prot. bind., drug fraction bound” value was 99%; the Cmax is 170 µM.
Consider `O=C(O)Cc1ccccc1Nc1c(Cl)cccc1Cl` [Diclofenac Na, diclofenac sodium], for which, in data set [2], the “Vd, volume of distribution” value is 0.17 L/kg; the “Prot. bind., drug fraction bound” value is reported as 99.5%; the Cmax is 13 µM.
With `CC(=O)OCC1=C(C(=O)O)N2C(=O)[C@@H](NC(=O)Cc3cccs3)[C@H]2SC1` [Cephalothin], in data set [2], the “Vd, volume of distribution” value is 0.26 L/kg; the “K1:1, stability constant” value is 70^11 M^−1; the “Prot. bind., drug fraction bound” value is 80%; the Cmax is 76 µM.
On to `O=C(N[C@H](CO)[C@H](O)c1ccc([N+](=O)[O-])cc1)C(Cl)Cl` [Chloramphenicol], for which, in data set [2], the “Vd, volume of distribution” value was 0.80 L/kg; the “Prot. bind., drug fraction bound” value is reported as 80%; the Cmax is 130 µM.
Consider `NS(=O)(=O)c1cc(C2(O)NC(=O)c3ccccc32)ccc1Cl` (stereo not shown) [Chlortalidone (chlorthalidone), chlorthalidone], for which, in data set [2], the “Vd, volume of distribution” value was 4.0 L/kg; the “K1:1, stability constant” value is reported as 115^14 M^−1; the “Prot. bind., drug fraction bound” value is recorded as 75%; the Cmax is 19 µM.
